Molecules are shown by their SMILES.

Experiment [1] addresses human Orexin type 2 receptors (Homo sapiens (Human), UniProt O43614). Description: Scintillation Proximity Assay (SPA) binding assay, [3H]EMPA displacement, HEK-hOX2 membranes. The note with it: for Ki: read-out: OX2 pKi (SPA binding) (converted). On the technique in general: In a scintillation proximity assay essentially only radioactivity close to the scintillant gives light.

In experiment [2] the target is human Orexin type 1 receptors (Homo sapiens (Human), UniProt O43613). Description: Scintillation Proximity Assay (SPA) binding assay, [3H]SB-674042 displacement, CHO-hOX1 membranes. The conditions noted are these: for Ki: read-out: OX1 pKi (SPA binding) (converted).
Sequence of human Orexin type 1 receptors (O43613 whole entry): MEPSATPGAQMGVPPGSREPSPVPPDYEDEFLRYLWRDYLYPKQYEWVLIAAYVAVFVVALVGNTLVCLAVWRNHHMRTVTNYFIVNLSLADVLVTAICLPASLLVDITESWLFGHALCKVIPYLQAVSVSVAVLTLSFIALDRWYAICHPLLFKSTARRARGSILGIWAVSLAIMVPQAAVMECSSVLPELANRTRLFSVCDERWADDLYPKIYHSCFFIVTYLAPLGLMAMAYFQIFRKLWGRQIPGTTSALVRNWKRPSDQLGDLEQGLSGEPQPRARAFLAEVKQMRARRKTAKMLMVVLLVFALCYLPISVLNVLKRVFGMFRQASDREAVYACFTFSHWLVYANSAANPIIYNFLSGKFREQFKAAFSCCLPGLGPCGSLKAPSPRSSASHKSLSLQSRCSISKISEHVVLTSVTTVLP

Sequence of human Orexin type 2 receptors (O43614 whole entry): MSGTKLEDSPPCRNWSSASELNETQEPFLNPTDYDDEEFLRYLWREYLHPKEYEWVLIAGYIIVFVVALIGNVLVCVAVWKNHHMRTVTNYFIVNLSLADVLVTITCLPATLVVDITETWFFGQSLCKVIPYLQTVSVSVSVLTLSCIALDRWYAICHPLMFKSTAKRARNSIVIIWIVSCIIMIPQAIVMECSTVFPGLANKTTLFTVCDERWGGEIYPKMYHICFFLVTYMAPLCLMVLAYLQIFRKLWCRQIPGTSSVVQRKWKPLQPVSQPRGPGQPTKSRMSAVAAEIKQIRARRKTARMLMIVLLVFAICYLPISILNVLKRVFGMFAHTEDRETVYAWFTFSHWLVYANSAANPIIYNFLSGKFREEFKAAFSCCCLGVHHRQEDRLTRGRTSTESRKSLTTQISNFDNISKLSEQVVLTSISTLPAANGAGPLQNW

As for `C[C@@H]1C2CC(C2)N(C(=O)c2cc(F)ccc2-n2nccn2)C1CNc1nc2cccnc2s1` (mixture of isomers) [Example 228, cis-N-({2-[5-fluoro-2-(2H-1,2,3-triazol-2-yl)benzoyl]-4-methyl-2-azabicyclo[3.1.1]heptan-3-yl}methyl)-[1,3]thiazolo[5,4-b]pyridin-2-amine], the “OX2 pKi (SPA binding)” value in experiment [1] (Table 2, [3H]EMPA 2 nM) was 5.04. In addition, in experiment [2] (Table 2, [3H]SB-674042 2 nM), the “OX1 pKi (SPA binding)” value is 7.94.

`C[C@@H]1C2CC(C2)N(C(=O)c2cc(C#N)ccc2-n2nccn2)C1CNc1nc2ccc(F)cc2s1` (stereo partly drawn) [Example 175, cis-3-(3-{[(6-fluoro-1,3-benzothiazol-2-yl)amino]methyl}-4-methyl-2-azabicyclo[3.1.1]heptane-2-carbonyl)-4-(2H-1,2,3-triazol-2-yl)benzonitrile]: the “OX2 pKi (SPA binding)” value in experiment [1] (Table 2, [3H]EMPA 2 nM) is recorded as 6.02. Besides, in experiment [2] (Table 2, [3H]SB-674042 2 nM), the “OX1 pKi (SPA binding)” value amounted to 8.41.

As for `Cc1nc(C(=O)N2C3CC(C3)[C@H](C)[C@@H]2COc2cc3ccccc3cn2)c(-c2ccccc2)s1` (single isomer, unassigned) [Example 89, 3-{[(3S,4R or 3R,4S)-4-methyl-2-(2-methyl-5-phenyl-1,3-thiazole-4-carbonyl)-2-azabicyclo[3.1.1]heptan-3-yl]methoxy}isoquinoline], the Ki is 1000 nM in experiment [1] (Table 1, [3H]EMPA 2 nM) and 1.38 nM in experiment [2] (Table 1, [3H]SB-674042 2 nM).

As to `Cc1ccc(-n2nccn2)c(C(=O)N2C3CC(C3)[C@@H](C)C2CNc2cccc(C(F)(F)F)n2)n1` (mixture of isomers) [Example 197, cis-N-({4-methyl-2-[6-methyl-3-(2H-1,2,3-triazol-2-yl)pyridine-2-carbonyl]-2-azabicyclo[3.1.1]heptan-3-yl}methyl)-6-(trifluoromethyl)pyridin-2-amine], the “OX2 pKi (SPA binding)” value in experiment [1] (Table 2, [3H]EMPA 2 nM) is recorded as 5.76. In addition, the “OX1 pKi (SPA binding)” value in experiment [2] (Table 2, [3H]SB-674042 2 nM) came to 6.99.

Turning to `C[C@@H]1C2CC(C2)N(C(=O)c2cc(F)ccc2-n2nccn2)C1CNc1cnc2ccccc2n1` (mixture of isomers) [Example 187, cis-N-({2-[5-fluoro-2-(2H-1,2,3-triazol-2-yl)benzoyl]-4-methyl-2-azabicyclo[3.1.1]heptan-3-yl}methyl)quinoxalin-2-amine], the “OX2 pKi (SPA binding)” value in experiment [1] (Table 2, [3H]EMPA 2 nM) is 5.63. The “OX1 pKi (SPA binding)” value in experiment [2] (Table 2, [3H]SB-674042 2 nM) was found to be 8.19.

Consider `Cc1ccc(-n2nccn2)c(C(=O)N2C3CC(C3)[C@H](C)C2CNc2ncc3ccccc3n2)n1` (stereo partly drawn) [Example 149, trans-N-({4-methyl-2-[6-methyl-3-(2H-,2,3-triazol-2-yl)pyridine-2-carbonyl]-2-azabicyclo[3.1.1]heptan-3-yl}methyl)quinazolin-2-amine], for which the “OX2 pKi (SPA binding)” value in experiment [1] (Table 2, [3H]EMPA 2 nM) is 5.72. Also, the “OX1 pKi (SPA binding)” value in experiment [2] (Table 2, [3H]SB-674042 2 nM) is 6.82.

With `Cc1ccc(-n2cccn2)c(C(=O)N2C3CC(C3)[C@H](C)C2COc2ccc(F)cc2)n1` (mixture of isomers) [Example 122, trans-3-[(4-fluorophenoxy)methyl]-4-methyl-2-[6-methyl-3-(1H-pyrazol-1-yl)pyridine-2-carbonyl]-2-azabicyclo[3.1.1]heptane], the “OX2 pKi (SPA binding)” value in experiment [1] (Table 2, [3H]EMPA 2 nM) is listed as 5.4. The “OX1 pKi (SPA binding)” value in experiment [2] (Table 2, [3H]SB-674042 2 nM) was determined as 7.22.

For the molecule `Cc1ccc(-c2nccs2)c(C(=O)N2C3CC(C3)[C@@H](C)C2COc2ccc(F)cc2)c1` (mixture of isomers) [Example 98, cis-3-[(4-fluorophenoxy)methyl]-4-methyl-2-[5-methyl-2-(1,3-thiazol-2-yl)benzoyl]-2-azabicyclo[3.1.1]heptane], the “OX2 pKi (SPA binding)” value in experiment [1] (Table 1, [3H]EMPA 2 nM) was 6.75. In addition, the “OX1 pKi (SPA binding)” value in experiment [2] (Table 1, [3H]SB-674042 2 nM) is listed as 7.86.

On to `Cc1ccc(-c2nccs2)c(C(=O)N2C3CC(C3)[C@H](C)C2COc2ccc(F)cc2)n1` (single isomer, unassigned) [Example 108, (3S,4S or 3R,4R)-3-[(4-fluorophenoxy)methyl]-4-methyl-2-[6-methyl-3-(1,3-thiazol-2-yl)pyridine-2-carbonyl]-2-azabicyclo[3.1.1]heptane], for which the Ki is 407 nM in experiment [1] (Table 1, [3H]EMPA 2 nM) and 3.24 nM in experiment [2] (Table 1, [3H]SB-674042 2 nM).

With `C[C@@H]1C2CC(C2)N(C(=O)c2cc(Cl)ccc2-n2nccn2)C1CNc1cnc2cc(F)ccc2n1` (single isomer, unassigned) [Example 209, N-{[(3R,4R) or (3S,4R)-2-[5-chloro-2-(2H-1,2,3-triazol-2-yl)benzoyl]-4-methyl-2-azabicyclo[3.1.1]heptan-3-yl]methyl}-6-fluoroquinoxalin-2-amine], the “OX2 pKi (SPA binding)” value in experiment [1] (Table 2, [3H]EMPA 2 nM) was 6.8. Further, in experiment [2] (Table 2, [3H]SB-674042 2 nM), the “OX1 pKi (SPA binding)” value amounted to 8.74.

`Cc1ccc(-n2nccn2)c(C(=O)N2C3CC(C3)[C@@H](C)C2CNc2nc3ccc(F)cc3o2)n1` (single isomer, unassigned) [Example 219, 6-fluoro-N-{[(3S,4R) or (3R,4S)-4-methyl-2-[6-methyl-3-(2H-1,2,3-triazol-2-yl)pyridine-2-carbonyl]-2-azabicyclo[3.1.1]heptan-3-yl]methyl}-1,3-benzoxazol-2-amine]: in experiment [1] (Table 2, [3H]EMPA 2 nM), the “OX2 pKi (SPA binding)” value was found to be 5.79. Also, the “OX1 pKi (SPA binding)” value in experiment [2] (Table 2, [3H]SB-674042 2 nM) turned out to be 8.71.

For `Cc1ccc(-n2nccn2)c(C(=O)N2C3CC(C3)[C@H](C)C2COc2nc3ccc(F)cc3s2)n1` (stereo partly drawn) [Example 110, trans-6-fluoro-2-({4-methyl-2-[6-methyl-3-(2H-1,2,3-triazol-2-yl)pyridine-2-carbonyl]-2-azabicyclo[3.1.1]heptan-3-yl}methoxy)-1,3-benzothiazole], in experiment [1] (Table 1, [3H]EMPA 2 nM), the “OX2 pKi (SPA binding)” value was 6.06. In addition, the “OX1 pKi (SPA binding)” value in experiment [2] (Table 1, [3H]SB-674042 2 nM) is listed as 7.

Turning to `Cc1nc(C(=O)N2C3CC(C3)[C@@H](C)[C@@H]2COc2cc3ccccc3cn2)c(-c2ccccc2)s1` (single isomer, unassigned) [Example 88, 3-{[(3S,4S or 3R,4R)-4-methyl-2-(2-methyl-5-phenyl-1,3-thiazole-4-carbonyl)-2-azabicyclo[3.1.1]heptan-3-yl]methoxy}isoquinoline], the Ki in experiment [1] (Table 1, [3H]EMPA 2 nM) was 275 nM; in experiment [2] (Table 1, [3H]SB-674042 2 nM), 12 nM.

`C[C@@H]1C2CC(C2)N(C(=O)c2cc(F)ccc2-n2nccn2)C1CNc1nc2ccc(F)cc2s1` (single isomer, unassigned) [Example 170, 6-fluoro-N-({(3R,4S) or (3S,4R)2-[5-fluoro-2-(2H-1,2,3-triazol-2-yl)benzoyl]-4-methyl-2-azabicyclo[3.1.1]heptan-3-yl}methyl)-1,3-benzothiazol-2-amine]: the “OX2 pKi (SPA binding)” value in experiment [1] (Table 2, [3H]EMPA 2 nM) was found to be 5.99. Further, in experiment [2] (Table 2, [3H]SB-674042 2 nM), the “OX1 pKi (SPA binding)” value turned out to be 8.86.

On to `C[C@@H]1C2CC(C2)N(C(=O)c2cc(F)ccc2-n2nccn2)C1CNc1ccc(C(F)(F)F)cn1` (single isomer, unassigned) [Example 192, N-({(3R,4S) or (3S,4R)2-[5-fluoro-2-(2H-1,2,3-triazol-2-yl)benzoyl]-4-methyl-2-azabicyclo[3.1.1]heptan-3-yl}methyl)-5-(trifluoromethyl)pyridin-2-amine], for which, in experiment [1] (Table 2, [3H]EMPA 2 nM), the “OX2 pKi (SPA binding)” value is reported as 5.19. Besides, the “OX1 pKi (SPA binding)” value in experiment [2] (Table 2, [3H]SB-674042 2 nM) is 8.13.

Take `C[C@@H]1C2CC(C2)N(C(=O)c2ccc(F)cc2-n2nccn2)C1CNc1cnc(C(F)(F)F)cn1` (stereo partly shown) [Example 252]: in experiment [1] (Table 2, [3H]EMPA 2 nM), the “OX2 pKi (SPA binding)” value came to 4.95. Also, the “OX1 pKi (SPA binding)” value in experiment [2] (Table 2, [3H]SB-674042 2 nM) stood at 7.19.

For `Cc1nc(C(=O)N2C3CC(C3)[C@H](C)C2COc2ccc(F)cc2)c(-c2cnccn2)s1` (mixture of isomers) [Example 121, trans-3-[(4-fluorophenoxy)methyl]-4-methyl-2-[2-methyl-5-(pyrazin-2-yl)-1,3-thiazole-4-carbonyl]-2-azabicyclo[3.1.1]heptane], the “OX2 pKi (SPA binding)” value in experiment [1] (Table 2, [3H]EMPA 2 nM) is 5.54. The “OX1 pKi (SPA binding)” value in experiment [2] (Table 2, [3H]SB-674042 2 nM) is 7.36.

In the case of `C[C@@H]1C2CC(C2)N(C(=O)c2cc(Cl)ccc2-n2nccn2)C1CNc1ncc(C2CC2)cn1` (stereo partly shown) [Example 259], the “OX2 pKi (SPA binding)” value in experiment [1] (Table 2, [3H]EMPA 2 nM) is recorded as 5.32. For the same molecule, the “OX1 pKi (SPA binding)” value in experiment [2] (Table 2, [3H]SB-674042 2 nM) worked out at 7.66.

Take `Cc1ccc(-n2nccn2)c(C(=O)N2C3CC(C3)[C@@H](C)C2CNc2cnc3ccccc3n2)n1` (single isomer, unassigned) [Example 159, N-{[(3S,4R) or (3R,4S)-4-methyl-2-[6-methyl-3-(2H-1,2,3-triazol-2-yl)pyridine-2-carbonyl]-2-azabicyclo[3.1.1]heptan-3-yl]methyl}quinoxalin-2-amine]: the “OX2 pKi (SPA binding)” value in experiment [1] (Table 2, [3H]EMPA 2 nM) stood at 4.59. In experiment [2] (Table 2, [3H]SB-674042 2 nM), the “OX1 pKi (SPA binding)” value is given as 6.84.

In the case of `C[C@@H]1C2CC(C2)N(C(=O)c2cc(C#N)ccc2-n2nccn2)C1CNc1nc2ccc(F)cc2s1` (single isomer, unassigned) [Example 177, 3-[(3R,4S) or (3S,4R)-3-{[(6-fluoro-1,3-benzothiazol-2-yl)amino]methyl}-4-methyl-2-azabicyclo[3.1.1]heptane-2-carbonyl]-4-(2H-1,2,3-triazol-2-yl)benzonitrile], the “OX2 pKi (SPA binding)” value in experiment [1] (Table 2, [3H]EMPA 2 nM) came to 6.46. For the same molecule, the “OX1 pKi (SPA binding)” value in experiment [2] (Table 2, [3H]SB-674042 2 nM) was 8.95.

Regarding `C[C@@H]1C2CC(C2)N(C(=O)c2cc(F)ccc2-n2nccn2)C1CNc1nc2ccc(F)cc2s1` (mixture of isomers) [Example 168, cis-6-fluoro-N-({2-[5-fluoro-2-(2H-1,2,3-triazol-2-yl)benzoyl]-4-methyl-2-azabicyclo[3.1.1]heptan-3-yl}methyl)-1,3-benzothiazol-2-amine], in experiment [1] (Table 2, [3H]EMPA 2 nM), the “OX2 pKi (SPA binding)” value was 5.88. Besides, in experiment [2] (Table 2, [3H]SB-674042 2 nM), the “OX1 pKi (SPA binding)” value came to 8.46.

In the case of `C[C@@H]1C2CC(C2)N(C(=O)c2c(F)cccc2-n2nccn2)C1CNc1cnc(C(F)(F)F)cn1` (stereo partly shown) [Example 253], the “OX2 pKi (SPA binding)” value in experiment [1] (Table 2, [3H]EMPA 2 nM) worked out at 5. In experiment [2] (Table 2, [3H]SB-674042 2 nM), the “OX1 pKi (SPA binding)” value is reported as 7.88.

Consider `Cc1ccc(-n2nccn2)c(C(=O)N2C3CC(C3)[C@@H](C)C2CNc2cc3ccccc3cn2)n1` (stereo partly drawn) [Example 151, cis-N-({4-methyl-2-[6-methyl-3-(2H-1,2,3-triazol-2-yl)pyridine-2-carbonyl]-2-azabicyclo[3.1.1]heptan-3-yl}methyl)isoquinolin-3-amine], for which, in experiment [1] (Table 2, [3H]EMPA 2 nM), the “OX2 pKi (SPA binding)” value worked out at 5.42. In addition, the “OX1 pKi (SPA binding)” value in experiment [2] (Table 2, [3H]SB-674042 2 nM) came to 7.59.

For the origin of these results see patent US11660293B2, “Substituted 2-azabicyclo[3.1.1]heptane and 2-azabicyclo[3.2.1]octane derivatives as orexin receptor antagonists” (Chronos Therapeutics Limited, priority 2017, dated 2023).
